Test results as given in the NIST ThermoML archive (doi:10.1016/j.jct.2011.07.008).

Columns and labels:
[1] = 298.15 K; 101.33 kPa; Liquid; Pycnometric method
[2] = refractive index (Na D-line) (dimensionless); settings: 298.15 K; 101.33 kPa; Liquid; Standard Abbe refractometry
[3] = mn = molality of the nth substance listed, in mol/kg; settings: 101 kPa, Liquid; for viscosity: Capillary tube (Ostwald / Ubbelohde) method

CCOCCO [2-ethoxyethan-1-ol]
Settings | mass density [kg/m3] | refractive index
[1] | 925.05 | –
[2] | – | 1.4057

COCCOCCO [2-(2-methoxyethoxy)ethanol] + O
[3]
Settings | viscosity [mPa·s]
275.15 K, m1 = 0.0099 | 1.004
275.15 K, m1 = 0.0209 | 1.009
275.15 K, m1 = 0.0309 | 1.014
275.15 K, m1 = 0.0396 | 1.018
275.15 K, m1 = 0.052 | 1.023
275.15 K, m1 = 0.061 | 1.028
275.15 K, m1 = 0.0706 | 1.032
275.15 K, m1 = 0.0799 | 1.037
275.15 K, m1 = 0.093 | 1.044
275.15 K, m1 = 0.1057 | 1.05
283.15 K, m1 = 0.0109 | 1.004
283.15 K, m1 = 0.0191 | 1.008
283.15 K, m1 = 0.0303 | 1.012
283.15 K, m1 = 0.0406 | 1.016
283.15 K, m1 = 0.0487 | 1.02
283.15 K, m1 = 0.0599 | 1.024
283.15 K, m1 = 0.0709 | 1.029
283.15 K, m1 = 0.0806 | 1.033
283.15 K, m1 = 0.09 | 1.037
283.15 K, m1 = 0.0901 | 1.037
283.15 K, m1 = 0.1009 | 1.041

[3]
Settings | mass density [kg/m3]
275.15 K, Pycnometric method, m1 = 0.0099 | 1000.07
275.15 K, Pycnometric method, m1 = 0.0209 | 1000.18
275.15 K, Pycnometric method, m1 = 0.0309 | 1000.32
275.15 K, Pycnometric method, m1 = 0.0396 | 1000.42
275.15 K, Pycnometric method, m1 = 0.052 | 1000.56
275.15 K, Pycnometric method, m1 = 0.061 | 1000.66
275.15 K, Pycnometric method, m1 = 0.0706 | 1000.76
275.15 K, Pycnometric method, m1 = 0.0799 | 1000.86
275.15 K, Pycnometric method, m1 = 0.093 | 1000.98
275.15 K, Pycnometric method, m1 = 0.1057 | 1001.12
283.15 K, Buoyancy - hydrostatic balance with magnetic suspension - one sinker, m1 = 0.0109 | 999.8
283.15 K, Buoyancy - hydrostatic balance with magnetic suspension - one sinker, m1 = 0.0191 | 999.93
283.15 K, Buoyancy - hydrostatic balance with magnetic suspension - one sinker, m1 = 0.0303 | 1000.04
283.15 K, Buoyancy - hydrostatic balance with magnetic suspension - one sinker, m1 = 0.0406 | 1000.11
283.15 K, Buoyancy - hydrostatic balance with magnetic suspension - one sinker, m1 = 0.0487 | 1000.17
283.15 K, Buoyancy - hydrostatic balance with magnetic suspension - one sinker, m1 = 0.0599 | 1000.27
283.15 K, Buoyancy - hydrostatic balance with magnetic suspension - one sinker, m1 = 0.0709 | 1000.38
283.15 K, Buoyancy - hydrostatic balance with magnetic suspension - one sinker, m1 = 0.0806 | 1000.47
283.15 K, Buoyancy - hydrostatic balance with magnetic suspension - one sinker, m1 = 0.09 | 1000.56
283.15 K, Buoyancy - hydrostatic balance with magnetic suspension - one sinker, m1 = 0.0901 | 1000.59
283.15 K, Buoyancy - hydrostatic balance with magnetic suspension - one sinker, m1 = 0.1009 | 1000.68

CCOCCO [2-ethoxyethan-1-ol] + O
[3]
Settings | viscosity [mPa·s]
275.15 K, m1 = 0.0102 | 1.005
275.15 K, m1 = 0.0202 | 1.01
275.15 K, m1 = 0.0294 | 1.015
275.15 K, m1 = 0.0459 | 1.025
275.15 K, m1 = 0.0502 | 1.028
275.15 K, m1 = 0.0602 | 1.035
275.15 K, m1 = 0.071 | 1.042
275.15 K, m1 = 0.0818 | 1.05
275.15 K, m1 = 0.0902 | 1.057
275.15 K, m1 = 0.1008 | 1.065
283.15 K, m1 = 0.0067 | 1.002
283.15 K, m1 = 0.0191 | 1.006
283.15 K, m1 = 0.0303 | 1.01
283.15 K, m1 = 0.0392 | 1.014
283.15 K, m1 = 0.0492 | 1.018
283.15 K, m1 = 0.0598 | 1.022
283.15 K, m1 = 0.0682 | 1.026
283.15 K, m1 = 0.0799 | 1.032
283.15 K, m1 = 0.0885 | 1.036
283.15 K, m1 = 0.0906 | 1.037
283.15 K, m1 = 0.0996 | 1.042
283.15 K, m1 = 0.1004 | 1.043

[3]
Settings | mass density [kg/m3]
275.15 K, Pycnometric method, m1 = 0.0102 | 999.95
275.15 K, Pycnometric method, m1 = 0.0202 | 999.95
275.15 K, Pycnometric method, m1 = 0.0294 | 999.95
275.15 K, Pycnometric method, m1 = 0.0459 | 999.96
275.15 K, Pycnometric method, m1 = 0.0502 | 999.96
275.15 K, Pycnometric method, m1 = 0.0602 | 999.97
275.15 K, Pycnometric method, m1 = 0.071 | 1000
275.15 K, Pycnometric method, m1 = 0.0818 | 1000
275.15 K, Pycnometric method, m1 = 0.0902 | 1000.01
275.15 K, Pycnometric method, m1 = 0.1008 | 1000.03
283.15 K, Buoyancy - hydrostatic balance with magnetic suspension - one sinker, m1 = 0.0067 | 999.7
283.15 K, Buoyancy - hydrostatic balance with magnetic suspension - one sinker, m1 = 0.0191 | 999.71
283.15 K, Buoyancy - hydrostatic balance with magnetic suspension - one sinker, m1 = 0.0303 | 999.71
283.15 K, Buoyancy - hydrostatic balance with magnetic suspension - one sinker, m1 = 0.0392 | 999.74
283.15 K, Buoyancy - hydrostatic balance with magnetic suspension - one sinker, m1 = 0.0492 | 999.72
283.15 K, Buoyancy - hydrostatic balance with magnetic suspension - one sinker, m1 = 0.0598 | 999.72
283.15 K, Buoyancy - hydrostatic balance with magnetic suspension - one sinker, m1 = 0.0682 | 999.73
283.15 K, Buoyancy - hydrostatic balance with magnetic suspension - one sinker, m1 = 0.0799 | 999.73
283.15 K, Buoyancy - hydrostatic balance with magnetic suspension - one sinker, m1 = 0.0885 | 999.73
283.15 K, Buoyancy - hydrostatic balance with magnetic suspension - one sinker, m1 = 0.0906 | 999.73
283.15 K, Buoyancy - hydrostatic balance with magnetic suspension - one sinker, m1 = 0.0996 | 999.76
283.15 K, Buoyancy - hydrostatic balance with magnetic suspension - one sinker, m1 = 0.1004 | 999.78

CCOCCOCCO [3,6-dioxa-1-octanol]
Settings | mass density [kg/m3] | refractive index
[1] | 984.045 | –
[2] | – | 1.4253

COCCO [2-methoxyethan-1-ol]
Settings | mass density [kg/m3] | refractive index
[1] | 959.03 | –
[2] | – | 1.4003
